Results: patent publication US12655116B2, “Substituted isophthalic acid diamides” (Bayer Aktiengesellschaft, priority 2020, dated 2026)

Assays:
ECHCG [1] = assay: Post-emergence herbicidal action against ECHCG; type: in vivo, Echinochloa crus-galli
Summary of the method: (§1)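 Herbicidal effect was scored visually in percent after about 3 weeks in the greenhouse. Plants had been raised in sandy loam and treated post-emergence at the one-leaf stage with formulated compound at 600 to 800 l/ha water plus 0.2% wetting agent.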

MATIN [2] = assay: Pre-emergence herbicidal action against MATIN; type: in vivo, Matricaria inodora
Summary of the method: (§2)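 Herbicidal effect was assessed 3 weeks after treatment by visual comparison with untreated controls, 100% denoting dead plants. Aqueous WP or EC preparations had been applied at 600 to 800 l/ha with 0.2% wetting agent to the soil covering freshly sown seeds.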

PHBPU [3] = assay: Pre-emergence herbicidal action against PHBPU; type: in vivo, Pharbitis purpurea
Summary of the method: as §2

SETVI [4] = assay: Post-emergence herbicidal action against SETVI; type: in vivo, Setaria viridis; conditions: dosage 20 g/ha
Summary of the method: as §1

POLCO = assay: Pre-emergence herbicidal action against POLCO; type: in vivo, Polygonum convolvulus; conditions: dosage 80 g/ha
Summary of the method: as §2

ALOMY [5] = assay: Pre-emergence herbicidal action against ALOMY; type: in vivo, Alopecurus myosuroides; conditions: pre-emergence
Summary of the method: as §2

AMARE [6] = assay: Post-emergence herbicidal action against AMARE; type: in vivo, Amaranthus retroflexus; conditions: 20 g/ha, visual assessment about 3 weeks after treatment, 100% = plants have died, 0% = like control plants
Summary of the method: as §1

ABUTH [7] = assay: Pre-emergence herbicidal action against ABUTH; type: in vivo, Abutilon theophrasti
Summary of the method: as §2

PHBPU [8] = assay: Post-emergence herbicidal action against PHBPU; type: in vivo, Pharbitis purpurea
Summary of the method: as §1

LOLRI = assay: Pre-emergence herbicidal action against LOLRI; type: in vivo, Lolium rigidum; conditions: 80 g/ha
Summary of the method: as §2

DIGSA [9] = assay: Pre-emergence herbicidal action against DIGSA; type: in vivo, Digitaria sanguinalis
Summary of the method: as §2

VERPE [10] = assay: Pre-emergence herbicidal action against VERPE; type: in vivo, Veronica persica; conditions: dosage 80 g/ha
Summary of the method: as §2

VIOTR [11] = assay: Pre-emergence herbicidal action against VIOTR; type: in vivo, Viola tricolor
Summary of the method: as §2

ECHCG [12] = assay: Pre-emergence herbicidal action against ECHCG; type: in vivo, Echinochloa crus-galli
Summary of the method: as §2

AMARE [13] = assay: Pre-emergence herbicidal action against AMARE; type: in vivo, Amaranthus retroflexus
Summary of the method: as §2

SETVI [14] = assay: Pre-emergence herbicidal action against SETVI; type: in vivo, Setaria viridis; conditions: dosage 80 g/ha
Summary of the method: as §2

ALOMY [15] = assay: Post-emergence herbicidal action against ALOMY; type: in vivo, Alopecurus myosuroides; conditions: visual assessment about 3 weeks after treatment vs untreated controls
Summary of the method: as §1

AVEFA = assay: Pre-emergence herbicidal action against AVEFA; type: in vivo, Avena fatua; conditions: pre-emergence
Summary of the method: as §2

VERPE [16] = assay: Post-emergence herbicidal action against VERPE; type: in vivo, Veronica persica; conditions: Veronica persica, 504 h, 20 g/ha
Summary of the method: as §1

ABUTH [17] = assay: Post-emergence herbicidal action against ABUTH; type: in vivo, Abutilon theophrasti; conditions: visual assessment about 3 weeks after treatment vs untreated controls
Summary of the method: as §1

VIOTR [18] = assay: Post-emergence herbicidal action against VIOTR; type: in vivo, Viola tricolor
Summary of the method: as §1

MATIN [19] = assay: Post-emergence herbicidal action against MATIN; type: in vivo, Matricaria inodora
Summary of the method: as §1

DIGSA [20] = assay: Post-emergence herbicidal action against DIGSA; type: in vivo, Digitaria sanguinalis; conditions: 20 g/ha
Summary of the method: as §1

[21] = 80 g/ha, scored visually after 3 weeks vs untreated controls (100% = plants have died, 0% = like control plants)
[22] = dosage 20 g/ha, scored visually after 3 weeks vs untreated controls, 100% = plants have died, 0% = like control plants
[23] = 20 g/ha, scored visually after 3 weeks vs untreated controls, 100% = plants have died, 0% = like control plants
[24] = Tripleurospermum inodorum, 504 h, dosage 20 g/ha

## COCCNC(=O)c1c(C(F)(F)F)ccc(C(=O)Nc2nnnn2C)c1Cl [Example 1-138]
ECHCG [1]; dosage 5 g/ha
  Post-emergence action against ECHCG in %: 80%
ECHCG [1]; dosage 20 g/ha
  Post-emergence action against ECHCG in %: 90%
MATIN [2]; dosage 20 g/ha
  Pre-emergence action against MATIN in %: 90%
MATIN [2]; dosage 80 g/ha
  Pre-emergence action against MATIN in %: 100%
PHBPU [3]; dosage 20 g/ha
  Pre-emergence action against PHBPU in %: 80%
PHBPU [3]; dosage 80 g/ha
  Pre-emergence action against PHBPU in %: 90%
SETVI [4]
  Post-emergence action against SETVI in %: 80%
POLCO
  Pre-emergence action against POLCO in %: 90%
ALOMY [5]; [21]
  Pre-emergence action against ALOMY (herbicidal activity): 90%
AMARE [6]
  Post-emergence action at 20 g/ha against AMARE in %: 90%
ABUTH [7]; [21]
  Pre-emergence action against ABUTH (herbicidal activity): 100%
ABUTH [7]; [22]
  Pre-emergence action against ABUTH (herbicidal activity in percent): 100%
PHBPU [8]; dosage 5 g/ha
  Post-emergence action against PHBPU in %: 80%
PHBPU [8]; dosage 20 g/ha
  Post-emergence action against PHBPU in %: 90%
LOLRI
  Pre-emergence action against LOLRI in %: 90%
DIGSA [9]; dosage 20 g/ha
  Pre-emergence action against DIGSA in %: 100%
DIGSA [9]; dosage 80 g/ha
  Pre-emergence action against DIGSA in %: 100%
VERPE [10]
  Pre-emergence action against VERPE in %: 90%
VIOTR [11]; dosage 20 g/ha
  Pre-emergence action against VIOTR in %: 100%
VIOTR [11]; dosage 80 g/ha
  Pre-emergence action against VIOTR in %: 100%
ECHCG [12]; 80 g/ha
  Pre-emergence action against ECHCG in %: 100%
AMARE [13]; [23]
  Pre-emergence action against AMARE in %: 100%
AMARE [13]; [21]
  Pre-emergence action against AMARE in %: 100%
SETVI [14]
  Pre-emergence action against SETVI in %: 100%
ALOMY [15]; dosage 20 g/ha
  Post-emergence action against ALOMY in %: 90%

## CCCNC(=O)c1c(C(F)F)ccc(C(=O)Nc2nnnn2C)c1C [Example 1-345]
ECHCG [1]; Echinochloa crus-galli, 504 h, dosage 20 g/ha
  pest or weed control at 20 g/ha: 90%
MATIN [2]; [24]
  pest or weed control at 20 g/ha: 100%
MATIN [2]; Tripleurospermum inodorum, 504 h, dosage 80 g/ha
  pest or weed control at 80 g/ha: 100%
AVEFA; Avena fatua, 504 h, 80 g/ha
  pest or weed control at 80 g/ha: 90%
AVEFA; Avena fatua, 504 h, 20 g/ha, scored visually after 3 weeks, 100% = plants have died, 0% = like control plants
  pest or weed control at 20 g/ha: 80%
SETVI [4]; Setaria viridis, 504 h
  pest or weed control at 20 g/ha: 90%
POLCO; Fallopia convolvulus, 504 h
  pest or weed control at 80 g/ha: 90%
VERPE [16]
  pest or weed control at 20 g/ha: 90%
ALOMY [5]; Alopecurus myosuroides, 504 h, 80 g/ha, scored visually after 3 weeks vs untreated controls (100% = plants have died, 0% = like control plants)
  pest or weed control at 80 g/ha: 90%
ALOMY [5]; Alopecurus myosuroides, 504 h, 20 g/ha, scored visually after 3 weeks, 100% = plants have died, 0% = like control plants
  pest or weed control at 20 g/ha: 80%
AMARE [6]; Amaranthus retroflexus, 504 h
  pest or weed control at 20 g/ha: 100%
ABUTH [7]; Abutilon theophrasti, 504 h, 80 g/ha, scored visually after 3 weeks vs untreated controls (100% = plants have died, 0% = like control plants)
  pest or weed control at 80 g/ha: 100%
ABUTH [7]; Abutilon theophrasti, 504 h, dosage 20 g/ha, scored visually after 3 weeks vs untreated controls, 100% = plants have died, 0% = like control plants, read-out: Pre-emergence action against ABUTH (herbicidal activity in percent)
  pest or weed control at 20 g/ha: 100%
PHBPU [8]; Ipomoea purpurea, 504 h, dosage 5 g/ha
  pest or weed control at 5 g/ha: 80%
PHBPU [8]; Ipomoea purpurea, 504 h, dosage 20 g/ha
  pest or weed control at 20 g/ha: 80%
LOLRI; Lolium rigidum, 504 h
  pest or weed control at 80 g/ha: 80%
VERPE [10]; Veronica persica, 504 h
  pest or weed control at 80 g/ha: 80%
VIOTR [11]; Viola tricolor, 504 h, dosage 80 g/ha
  pest or weed control at 80 g/ha: 100%
ECHCG [12]; Echinochloa crus-galli, 504 h, 20 g/ha
  pest or weed control at 20 g/ha: 90%
ECHCG [12]; Echinochloa crus-galli, 504 h, 80 g/ha
  pest or weed control at 80 g/ha: 100%
ABUTH [17]; Abutilon theophrasti, 504 h, dosage 5 g/ha
  pest or weed control at 5 g/ha: 80%
ABUTH [17]; Abutilon theophrasti, 504 h, dosage 20 g/ha
  pest or weed control at 20 g/ha: 90%
AMARE [13]; Amaranthus retroflexus, 504 h, 20 g/ha, scored visually after 3 weeks vs untreated controls, 100% = plants have died, 0% = like control plants
  pest or weed control at 20 g/ha: 100%
AMARE [13]; Amaranthus retroflexus, 504 h, 80 g/ha, scored visually after 3 weeks vs untreated controls, 100% = plants have died, 0% = like control plants
  pest or weed control at 80 g/ha: 100%
VIOTR [18]; Viola tricolor, 504 h, 5 g/ha
  pest or weed control at 5 g/ha: 90%
VIOTR [18]; Viola tricolor, 504 h, 20 g/ha
  pest or weed control at 20 g/ha: 100%
SETVI [14]; Setaria viridis, 504 h
  pest or weed control at 80 g/ha: 100%
MATIN [19]; [24]
  pest or weed control at 20 g/ha: 80%
ALOMY [15]; Alopecurus myosuroides, 504 h, dosage 5 g/ha
  pest or weed control at 5 g/ha: 80%
ALOMY [15]; Alopecurus myosuroides, 504 h, dosage 20 g/ha
  pest or weed control at 20 g/ha: 90%

## CCn1nnnc1NC(=O)c1ccc(C(F)(F)F)c(C(=O)NCC2CC2)c1Cl [Example 2-132]
ECHCG [1]; dosage 20 g/ha
  Post-emergence action against ECHCG in %: 90%
MATIN [2]; dosage 20 g/ha
  Pre-emergence action against MATIN in %: 100%
MATIN [2]; dosage 80 g/ha
  Pre-emergence action against MATIN in %: 100%
PHBPU [3]; dosage 80 g/ha
  Pre-emergence action against PHBPU in %: 90%
AVEFA; 80 g/ha
  Pre-emergence action against AVEFA in %: 90%
SETVI [4]
  Post-emergence action against SETVI in %: 80%
POLCO
  Pre-emergence action against POLCO in %: 80%
ALOMY [5]; [21]
  Pre-emergence action against ALOMY (herbicidal activity): 90%
AMARE [6]
  Post-emergence action at 20 g/ha against AMARE in %: 90%
ABUTH [7]; [21]
  Pre-emergence action against ABUTH (herbicidal activity): 100%
ABUTH [7]; [22]
  Pre-emergence action against ABUTH (herbicidal activity in percent): 100%
DIGSA [20]
  Post-emergence action against DIGSA: 80%
LOLRI
  Pre-emergence action against LOLRI in %: 90%
DIGSA [9]; dosage 20 g/ha
  Pre-emergence action against DIGSA in %: 80%
DIGSA [9]; dosage 80 g/ha
  Pre-emergence action against DIGSA in %: 100%
VIOTR [11]; dosage 20 g/ha
  Pre-emergence action against VIOTR in %: 100%
VIOTR [11]; dosage 80 g/ha
  Pre-emergence action against VIOTR in %: 100%
ECHCG [12]; 80 g/ha
  Pre-emergence action against ECHCG in %: 100%
ABUTH [17]; dosage 20 g/ha
  Post-emergence action against ABUTH in %: 80%
AMARE [13]; [23]
  Pre-emergence action against AMARE in %: 100%
AMARE [13]; [21]
  Pre-emergence action against AMARE in %: 100%
VIOTR [18]; 20 g/ha
  Post-emergence action against VIOTR in %: 90%
SETVI [14]
  Pre-emergence action against SETVI in %: 100%
MATIN [19]; dosage 5 g/ha
  Post-emergence action against MATIN in %: 80%
MATIN [19]; dosage 20 g/ha
  Post-emergence action against MATIN in %: 80%

## CCn1nnnc1NC(=O)c1ccc(C(F)(F)F)c(C(=O)NCC(F)F)c1Br [Example 2-212]
ECHCG [1]; dosage 20 g/ha
  Post-emergence action against ECHCG in %: 80%
MATIN [2]; dosage 80 g/ha
  Pre-emergence action against MATIN in %: 100%
PHBPU [3]; dosage 80 g/ha
  Pre-emergence action against PHBPU in %: 80%
AVEFA; 80 g/ha
  Pre-emergence action against AVEFA in %: 90%
POLCO
  Pre-emergence action against POLCO in %: 80%
ALOMY [5]; [21]
  Pre-emergence action against ALOMY (herbicidal activity): 100%
ABUTH [7]; [21]
  Pre-emergence action against ABUTH (herbicidal activity): 100%
DIGSA [20]
  Post-emergence action against DIGSA: 100%
LOLRI
  Pre-emergence action against LOLRI in %: 90%
DIGSA [9]; dosage 80 g/ha
  Pre-emergence action against DIGSA in %: 100%
VIOTR [11]; dosage 80 g/ha
  Pre-emergence action against VIOTR in %: 100%
ECHCG [12]; 80 g/ha
  Pre-emergence action against ECHCG in %: 90%
AMARE [13]; [21]
  Pre-emergence action against AMARE in %: 100%
SETVI [14]
  Pre-emergence action against SETVI in %: 100%
